Assay [1] deals with Escherichia coli. In words: Tested for the inhibitory activity against N-acetyl-L-phenylalanyl tRNA-70S Escherichia coli ribosome poly-U complex. It is filed as functional, organism-based.
Assay [2] concerns Escherichia coli. Put plainly: Tested for the percent inhibition against N-acetyl-L-phenylalanyl tRNA-70S Escherichia coli ribosome poly-U complex at 3.8*10e-4M concentration. It counts as functional.

pKi: −log10 of the molar value.

As usually defined, the pKi is the Ki on a negative log10 scale, so that one unit is a factor of ten. The Inhibition is the relative decrease from the control value, in per cent. A higher Inhibition goes with a strong effect.

In the assay on Escherichia coli [1], `COc1ccc(C[C@H](N)C(=O)N[C@H]2[C@@H](O)[C@H](n3cnc4c(N(C)C)ncnc43)O[C@@H]2CO)cc1` [PUROMYCIN] had a pKi of 3.66. The same measure, in the same setting: next, `Cc1nc(O)nc(O)c1/C=C/C(=O)N(C)C`: 3.46; `Cc1nc(O)nc(O)c1/C=C/C(=O)NC(CO)C(O)c1ccc([N+](=O)[O-])cc1` (centres undefined): 5.52. In the assay on Escherichia coli [2], `Cc1nc(O)nc(O)c1/C=C/C(=O)ON1C(=O)CCCC1=O` had an Inhibition of 20%.

The values are drawn from ChEMBL document CHEMBL1121942, “Sparsophenicol: a new synthetic hybrid antibiotic inhibiting ribosomal peptide synthesis” (J Med Chem, 1982).
